Read-outs that look alike come from different tables or passages of the source.
How the values were obtained:
[1] = parameters: method as in PMID 35959805; conditions: normal healthy volunteers and patients with Parkinson's disease; cited from earlier work
[2] = Mouse pharmacokinetics after single intraperitoneal dose (plasma and brain); type: in vivo; conditions: for AUC last / Cmax / AUC(0-t): mean ± SEM; for Kp / Tmax / half-life / Cmax / AUC(0-inf) / AUC(0-t): male, C57BL/6, mouse, ip; for Kp: brain and plasma, from AUCinf, read-out: brain/plasma exposure (AUC) ratio
Protocol: Characterization of exposure profile and brain distribution of minzasolmin in male C57BL/6 mice was performed at UCB BioPharma SPRL (Braine l’Alleud, Belgium). All the procedures were approved by the UCB Ethics Committee for Animal Experimentation and conducted in compliance with the Helsinki declaration and the guidelines of the European Community Council directive 86/609/EEC. UCB BioPharma is fully accredited by the Association for Assessment and Accreditation of Laboratory Animal Care (AAALAC). Male C57BL/6 mice (8 weeks of age, 20–27 g), purchased from Charles River Laboratories (Toulouse, France), were dosed intraperitoneally with 1 or 5 mg/kg of minzasolmin (10 mL/kg of 40% w/v Captisol® in water). Three mice were used per dose and per time of sampling (0.25, 0.5, 1, 2.5, and 6 h). Mice were anaesthetized with isofluorane and blood was collected from the vena cava into K2EDTA tubes. Animals were then perfused through the left ventricle with 20 mL of heparinized NaCl 0.9% (20 UI/mL), rate flow 20 mL/min, 1 min perfusion time. At the end of the procedure mice were sacrificed by cervical dislocation. Brain samples were weighed and collected in cold glass vials and stored at −20 °C, until bioanalysis. All blood samples were thoroughly but gently mixed following collection and placed directly on ice then centrifuged at 4 °C, 3000 g for 15 min within 30 min after sampling. The collected plasma was stored at −20 °C, until bioanalysis. Samples were analyzed by liquid chromatography-tandem mass spectrometry (LC-MS/MS). Results of minzasolmin concentrations in plasma and brain are reported in ng/mL and ng/g respectively. Pharmacokinetic profiling was performed by non-compartmental analysis, using Phoenix WinNonlin v6.4 software (Pharsight Inc., St. Louis, MO). All computations utilized the sparse sampling method according to the experimental composite sampling regimen.

Line 61 transgenic mice = assay: Grip strength, Line 61 transgenic mice; type: in vivo, mouse; conditions: 1 and 5 mg/kg, re-test after treatment, two-way ANOVA with repeated measures
Text: A transgenic mouse model of Parkinson’s disease overexpressing human wild-type ASYN under the murine Thy-1 promoter on a mixed C57Bl/6 background was used in the present studies (commonly referred to Line 61)[49]. The Line 61 transgenic mouse model of Parkinson’s disease develops extensive accumulation of ASYN in areas relevant to Parkinson’s disease[49]–[51], neurodegeneration (as evidenced by loss of tyrosine hydroxylase[52],[53] and dopamine transporter immunoreactivity[18] in the striatum), inflammation, and both motor and non-motor functional deficits. […] The vivarium ambient room temperature was monitored daily and kept within a range of 68–72 degrees Fahrenheit. […]
Nonetheless, a baseline measurement of grip strength is always included to confirm existing deficits in Line 61 transgenic mice and to inform pseudorandomized treatment group assignment (i.e., ensuring that each treatment group started with a similar distribution of grip strength performances). […] The dependent measure, peak strength (in grams of force), was determined per trial and as an average for each animal across trials. […]

[3] = brain, 1 mg/kg single i.p., C57/Bl6 mice
[4] = brain, 5 mg/kg single i.p., C57/Bl6 mice
[5] = plasma, 1 mg/kg single i.p., C57/Bl6 mice
[6] = plasma, 5 mg/kg single i.p., C57/Bl6 mice

SMILES: CCCC[C@H](Cc1c[nH]c2ccccc12)NC(=O)c1cnc(N2CCN(C)CC2)s1 [minzasolmin]
- safety and pharmacokinetic profiles [1]: favorable
- AUC inf [2, 3]: 99.0 ng·h/g
- AUC last [2, 3]: 93.9 ± 4.2 ng·h/g
- AUC inf [2, 4]: 422 ng·h/g
- AUC last [2, 4]: 394 ± 21 ng·h/g
- time of highest brain levels after dosing ([2]; brain, 1 and 5 mg/kg i.p.): 0.5 h
- Kp ([2]; 1 mg/kg i.p.): 0.32
- Kp ([2]; 5 mg/kg i.p.): 0.26
- Tmax ([2]; brain, 1 mg/kg, brain, 1 mg/kg single i.p., C57/Bl6 mice, read-out: T max): 30 min
- Tmax ([2]; brain, 5 mg/kg, brain, 5 mg/kg single i.p., C57/Bl6 mice, read-out: T max): 30 min
- half-life [2, 3]: 33.6 min
- Cmax [2, 3]: 76 ± 4 ng/g
- half-life [2, 4]: 36 min
- Cmax [2, 4]: 292 ± 30 ng/g
- AUC(0-inf) [2, 5]: 308 ng·h/mL
- half-life [2, 5]: 41.4 min
- AUC(0-t) [2, 5]: 307 ± 13 ng·h/mL
- Cmax [2, 5]: 332 ± 18 ng/mL
- AUC(0-inf) [2, 6]: 1650 ng·h/mL
- half-life [2, 6]: 49.8 min
- AUC(0-t) [2, 6]: 1640 ± 86 ng·h/mL
- Cmax [2, 6]: 1320 ± 124 ng/mL
- Tmax ([2]; plasma, 1 mg/kg, plasma, 1 mg/kg single i.p., C57/Bl6 mice, read-out: T max): 30 min
- Tmax ([2]; plasma, 5 mg/kg, plasma, 5 mg/kg single i.p., C57/Bl6 mice, read-out: T max): 15 min
- Tmax ([2]; plasma, 5 mg/kg, plasma, 1 and 5 mg/kg i.p., read-out: time of maximum plasma concentration after dosing): 15 to 30 min
- effect of chronic treatment on grip strength of Line 61 transgenic mice (Line 61 transgenic mice): no statistically significant benefits

From article PMC10352257, “In vivo effects of the alpha-synuclein misfolding inhibitor minzasolmin supports clinical development in Parkinson’s disease” (NPJ Parkinson's Disease, 2023)
